From US6861544B1, “Fluorous tin compounds an methods of using fluorous tin compounds” (University of Pittsburgh, priority 2000, dated 2005)

Columns and labels:
[1] = conditions of the reduction of FIG. 4
[2] = Partition coefficient of fluorous tin hydrides, FC-72/CH3CN (GC); assay type: physicochemical; conditions: FC-72 (1 mL) / acetonitrile (1 mL), stirred 10 min, GC relative peak area, n-octadecane internal standard
Description: (§1) Measurement of the Partition Coefficient of Fluorous Tin hyrides 4a-c. Fluorous tin hydrides (2-12 mg) were stirred with FC-72 (1 mL) and benzene (1 mL) or acetonitrile (1 mL) for 10 min. After separation, n-octadecane was added to both phases as an internal standard (for FC-72 phase, the solvent was evaporated and ethyl acetate (1 mL) was added to dissolve both the tin hydride and n-ocadecane). An aliquot (10 uL) of each phase was injected to GC for three times and the relative peak area was used to calculate the following partition coefficients of tin hydrides: FC-72/CH3CN, 4a, 2.4; 4b, 14; 4c, 48; FC-72/benzene, 4a, 0.7; 4b, 2.5; 4c, 4.7.

[3] = Partition coefficient of fluorous tin hydrides, FC-72/benzene (GC); assay type: physicochemical; conditions: FC-72 (1 mL) / benzene (1 mL), stirred 10 min, GC relative peak area, n-octadecane internal standard
Description: as §1

Row | SMILES | solubility in t-butanol [1] | partition coefficient FC-72/CH3CN [2] | partition coefficient FC-72/benzene [3]
1 | FC(F)(F)C(F)(F)C(F)(F)C(F)(F)C(F)(F)C(F)(F)C[CH2][SnH]([CH2]CC(F)(F)C(F)(F)C(F)(F)C(F)(F)C(F)(F)C(F)(F)F)[CH2]CC(F)(F)C(F)(F)C(F)(F)C(F)(F)C(F)(F)C(F)(F)F [(C6F13CH2CH2)3SnH] | insoluble or nearly insoluble | – | –
2 | [CH3][SnH]([CH3])[CH2]CC(F)(F)C(F)(F)C(F)(F)C(F)(F)C(F)(F)C(F)(F)C(F)(F)C(F)(F)F [4b, Dimethyl-(3,3,4,4,5,5,6,6,7,7,8,8,9,9,10,10,10-heptadecafluorodecyl)stannane] | – | 14 | 2.5
3 | [CH3][SnH]([CH3])[CH2]CC(F)(F)C(F)(F)C(F)(F)C(F)(F)C(F)(F)C(F)(F)C(F)(F)C(F)(F)C(F)(F)C(F)(F)F [4c, Dimethyl-(3,3,4,4,5,5,6,6,7,7,8,8,9,9,10,10,11,11,12,12,12-heneicosafluorododecyl)stannane] | – | 48 | 4.7
4 | [CH3][SnH]([CH3])[CH2]CC(F)(F)C(F)(F)C(F)(F)C(F)(F)C(F)(F)C(F)(F)F [4a, Dimethyl-(3,3,4,4,5,5,6,6,7,7,8,8,8-tridecafluorooctyl)stannane] | – | 2.4 | 0.7
